Data as given in patent publication US4380512A, “2β-Chloromethyl-2α-methylpenam-3α-carboxylic acid sulfone and salts and esters thereof” (Bristol-Myers Company, priority 1981, dated 1983).
Structures can show the parent of a compound that is named as a salt. Where two headings read alike, the source gives them in different places. Values belong to the compound of their own block, whether it stands above or below them.

What was measured:
[1] = man, oral; cited from earlier work
in vivo [2] = conditions: mouse, po
Excerpt: Compounds were solubilized in propylene glycol, except for the Hetacillin

S. aureus = assay: Therapeutic efficacy as mutual pro-drugs or mixtures, oral, infected mice (Table 12); format: in vivo; conditions: Staphylococcus aureus, pro-drugs and their mixtures 50:38, read-out: PD50/Treatment
Procedure: (§1) ^a Treatment schedule: Mice were infected i.p. with about 5 ×
(§2) 10^6 organisms of E. coli in 4% mucin and 1 × 10^9 of S.
(§3) aureus in 2% mucin. Drugs were administered p.o. at 0 and 2 hour
(§4) ^b Mutual ProDrugs: BLP2048 (hetacillin: BLP2013) and BLP2049
(§5) (hetaamoxicillin: BLP2013) as well as their respective mixtures were
(§6) administered in a 50:38 ratio. PD50 values are averages of 2 to 3
(§7) tests for E. coli and 1 to 2 tests for S. aureus.
(§8) averages of 1 to 2 tests for E. coli and a single test for S. aureus.

E. coli = assay: as above; format: in vivo; conditions: Escherichia coli, pro-drugs and their mixtures 50:38, read-out: PD50/Treatment
Procedure: as §1, §2, §3, §4, §5, §6, §7, §8

[3] = Blood levels and half-life of BL-P2024 after oral administration to mice (Table 5); format: in vivo; conditions: 100 mg/kg oral
in vivo [4] = conditions: mouse, po, 50 mg/kg
[5] = mouse, in vivo, po, 50 mg/kg
E. coli A9675 = assay: Therapeutic efficacy of BL-P2043, BL-P2044 and components, oral, infected mice (Table 13); format: in vivo; conditions: Escherichia coli, po; E. coli A9675, p.o.; pro-drugs and mixtures 50:38; read-out: PD50/Treatment

Structure (SMILES): CC1(C)S[C@@H]2[C@H](N=CN3CCCCCC3)C(=O)N2[C@H]1C(=O)OCOC(=O)[C@@H]1N2C(=O)C[C@H]2S(=O)(=O)C1(C)C [ester 4]
absorption from the gastro-intestinal tract [1]: excellently absorbed from the gastro-intestinal tract
blood and tissue levels of antibiotic and β-lactamase inhibitor [1]: high blood and tissue levels of antibiotic and β-lactamase inhibitor in a balanced ratio
hydrolysis after absorption [1]: hydrolyzed with simultaneous liberation of the active components

Structure (SMILES): CC1(C)SC2C(N3C(=O)C(c4ccc(O)cc4)NC3(C)C)C(=O)N2C1C(=O)OCOC(=O)C1N2C(=O)CC2S(=O)(=O)C1(C)CCl [BL-P2049, 2β-Chloromethyl-2α-methyl-1,1-dioxopenam-3-carbonyloxymethyl 6-[D-2,2-dimethyl-5-oxo-4-(4-hydroxyphenyl)-1-imidazolidinyl]-penicillanate Hydrochloride]
Blood Level (in vivo [2]; 38 mg/kg, 15 min): 4100 ng/mL
Blood Level (in vivo [2]; 38 mg/kg, 30 min): 4600 ng/mL
Blood Level (in vivo [2]; 38 mg/kg, 60 min): 3100 ng/mL
Blood Level (in vivo [2]; 38 mg/kg, 90 min): 2200 ng/mL
Blood Level (in vivo [2]; 38 mg/kg, 120 min): 1600 ng/mL
Blood Level (in vivo [2]; 38 mg/kg, 150 min): 1200 ng/mL
Blood Level (in vivo [2]; 50 mg/kg, 15 min): 3700 ng/mL
Blood Level (in vivo [2]; 50 mg/kg, 30 min): 4700 ng/mL
Blood Level (in vivo [2]; 50 mg/kg, 60 min): 4700 ng/mL
Blood Level (in vivo [2]; 50 mg/kg, 90 min): 4100 ng/mL
Blood Level (in vivo [2]; 50 mg/kg, 120 min): 3700 ng/mL
Blood Level (in vivo [2]; 50 mg/kg, 150 min): 3300 ng/mL
ED50 (S. aureus; S. aureus A20379, p.o.): > 400 mg/kg
ED50 (S. aureus; S. aureus A-9606, p.o.): > 374 mg/kg
ED50 (E. coli; E. coli A20649, p.o.): 43 mg/kg
ED50 (E. coli; E. coli A21223, p.o.): 32 mg/kg
ED50 (E. coli; E. coli A-9675, p.o.): 28 mg/kg

Blood Level ([3]; 15 min): 12300 ng/mL
Blood Level ([3]; 30 min): 12200 ng/mL
Blood Level ([3]; 60 min): 9400 ng/mL
Blood Level ([3]; 120 min): 5700 ng/mL
Structure (SMILES): CC(C)(C)C(=O)OCOC(=O)C1N2C(=O)CC2S(=O)(=O)C1(C)CCl (stereo not drawn) [BL-P2024, Pivaloyloxymethyl 2β-Chloromethyl-2α-methylpenam-3α-carboxylate Sulfone]

Structure (SMILES): CC1(C)SC2C(N3C(=O)C(c4ccccc4)NC3(C)C)C(=O)N2C1C(=O)OCOC(=O)C1N2C(=O)CC2S(=O)(=O)C1(C)CCl [BL-P2048, 2β-Chloromethyl-2α-methyl-1,1-dioxopenam-3-carbonyloxymethyl 6-(D-2,2-dimethyl-5-oxo-4-phenyl-1-imidazolidinyl)penicillanate Hydrochloride]
Blood Level (in vivo [2]; 38 mg/kg, 15 min): 10000 ng/mL
Blood Level (in vivo [2]; 38 mg/kg, 120 min): 900 ng/mL
Blood Level (in vivo [2]; 38 mg/kg, 150 min): 600 ng/mL
Blood Level (in vivo [2]; 50 mg/kg, 15 min): 8000 ng/mL
ED50 (S. aureus; S. aureus A20379, p.o.): 400 mg/kg
ED50 (S. aureus; S. aureus A-9606, p.o.): 274 mg/kg
ED50 (E. coli; E. coli A20649, p.o.): 89 mg/kg
ED50 (E. coli; E. coli A21223, p.o.): 32 mg/kg
ED50 (E. coli; E. coli A-9675, p.o.): 49 mg/kg

Structure (SMILES): CC1(C)S[C@@H]2[C@H](NC(=O)[C@H](N)c3ccccc3)C(=O)N2[C@H]1C(=O)O [Ampicillin, reference compound]
AUC (in vivo [2]; 50 mg/kg): 6200 ng·h/mL
concentration at 0.5 h (in vivo [2]; 50 mg/kg): 4000 ng/mL
concentration at 1 h (in vivo [2]; 50 mg/kg): 3300 ng/mL
concentration at 2 h (in vivo [2]; 50 mg/kg): 1700 ng/mL
AUC (in vivo [4]; AUC): 6200 ng·h/mL
concentration at 0.5 h (in vivo [4]; Blood Level): 4000 ng/mL
concentration at 1 h (in vivo [4]; Blood Level): 3300 ng/mL
concentration at 2 h (in vivo [4]; Blood Level): 1700 ng/mL
Blood Level ([5]; 0.5 h): 3200 ng/mL
Blood Level ([5]; 1 h): 2600 ng/mL
ED50 (E. coli A9675): > 400 mg/kg

Structure (SMILES): CC1(C)SC2C(NC(=O)C(N)c3ccc(O)cc3)C(=O)N2C1C(=O)OCOC(=O)C1N2C(=O)CC2S(=O)(=O)C1(C)CCl (single isomer, unassigned) [BL-P2044, Hydrochloride]
ED50 (E. coli A9675): 25 mg/kg

Structure (SMILES): CC1(C)SC2C(NC(=O)C(N)c3ccccc3)C(=O)N2C1C(=O)OCOC(=O)C1N2C(=O)CC2S(=O)(=O)C1(C)CCl [BL-P2043, 6-[(R)-2-Amino-2-phenylacetamido]-3,3-dimethyl-7-oxo-4-thia-1-azabicyclo[3.2.0]heptane-2-carbonyloxymethyl 2β-chloromethyl-2-α-methylpenam-3α-carboxylate sulfone]
ED50 (E. coli A9675): 44 mg/kg

Structure (SMILES): CC1(C)S[C@@H]2[C@H](NC(=O)[C@H](N)c3ccccc3)C(=O)N2[C@H]1C(=O)OCOC(=O)[C@@H]1N2C(=O)C[C@H]2S(=O)(=O)C1(C)C [ester 3]
absorption from the gastro-intestinal tract [1]: excellently absorbed from the gastro-intestinal tract
blood and tissue levels of antibiotic and β-lactamase inhibitor [1]: high blood and tissue levels of antibiotic and β-lactamase inhibitor in a balanced ratio
hydrolysis after absorption [1]: hydrolyzed with simultaneous liberation of the active components
